In ChEMBL document CHEMBL5113436, “WCK 4034: A promising oxazolidinone for treating gram positive infections” (Bioorg Med Chem Lett, 2022) one finds ED50 and MIC data, which are given here for 14 compounds.

In brackets after ≈: the same amount, converted by molar mass.

Common to all, as to assay type: functional
For assay [1], the system named is Staphylococcus aureus. The assay can be described thus: Antibacterial activity against Staphylococcus aureus Sta-5027 infected in Swiss mouse model of septicemia administered by oral route 1 h and 5 h post-infection. Conditions: Sta-5027, 168 h, time 7 day.
The test system of assay [2] is Staphylococcus aureus. Description: Antibacterial activity against methicillin-sensitive Staphylococcus aureus Sta-001 incubated for 18 hrs by CLSI protocol based two-fold serial agar dilution method. (Agar dilution tests growth on a series of plates holding different concentrations.)
For the next assay, the system named is Haemophilus influenzae. The assay can be described thus: Antibacterial activity against Haemophilus influenzae […] ATCC 35054 incubated for 18 hrs by CLSI protocol based two-fold serial agar dilution method.
Assay [3] concerns Staphylococcus aureus. Description: Antibacterial activity against Linezolid-resistant Staphylococcus aureus Sta-5060 incubated for 18 hrs by CLSI protocol based two-fold serial agar dilution method.
Assay [4] deals with Staphylococcus aureus. The assay can be described thus: Antibacterial activity against methicillin-resistant Staphylococcus aureus Sta-032 incubated for 18 hrs by CLSI protocol based two-fold serial agar dilution method.
Another assay concerns Streptococcus pneumoniae. The assay can be described thus: Antibacterial activity against Streptococcus pneumoniae ATCC 49619 incubated for 18 hrs by CLSI protocol based two-fold serial agar dilution method.
Assay [5] relates to Staphylococcus aureus. Description: Antibacterial activity against Linezolid-resistant Staphylococcus aureus Sta-5059 incubated for 18 hrs by CLSI protocol based two-fold serial agar dilution method.

Turning to `CC(=O)NC[C@H]1CN(c2cc(F)c(N3CCC4(OCCO4)[C@H](F)C3)c(F)c2)C(=O)O1`, the ED50 with Staphylococcus aureus [1] came to 2.5 mg/kg. Further, the MIC is 8 µg/mL (≈ 18.6 µM) with Staphylococcus aureus [2]; 16 µg/mL (≈ 37.3 µM) in the assay on Haemophilus influenzae; more than 8 µg/mL against Staphylococcus aureus [3]; 8 µg/mL (≈ 18.6 µM) against Staphylococcus aureus [4]; 2 µg/mL (≈ 4.66 µM) against Streptococcus pneumoniae; more than 8 µg/mL against Staphylococcus aureus [5].

In the case of `O=C1O[C@@H](Cn2ccnn2)CN1c1ccc(N2CCC3(OCCO3)C(F)C2)c(F)c1` (some centres undefined), the MIC against Staphylococcus aureus [2] was 16 µg/mL (≈ 38 µM); in the assay on Haemophilus influenzae it was more than 16 µg/mL; against Staphylococcus aureus [4] it was 3.12 µg/mL (≈ 7.4 µM); against Streptococcus pneumoniae, 4 µg/mL (≈ 9.49 µM).

With `CC(=O)NC[C@H]1CN(c2ccc(N3CCC4(CC3)OCCO4)c(F)c2)C(=O)O1`, it took a dose of 5 mg/kg to reach the 50% effect level in the assay on Staphylococcus aureus [1] (ED50). Besides, the MIC is 4 µg/mL (≈ 10.2 µM) with Staphylococcus aureus [2], 16 µg/mL (≈ 40.7 µM) against Haemophilus influenzae, 4 µg/mL (≈ 10.2 µM) with Staphylococcus aureus [4] and 4 µg/mL (≈ 10.2 µM) in the assay on Streptococcus pneumoniae.

Take `CC(=O)NC[C@H]1CN(c2ccc(N3CCC4(CC3)OCC(C)(C)CO4)c(F)c2)C(=O)O1`: the MIC in the assay on Staphylococcus aureus [2] is 16 µg/mL (≈ 36.7 µM); with Haemophilus influenzae, more than 16 µg/mL; against Staphylococcus aureus [4], 16 µg/mL (≈ 36.7 µM); against Streptococcus pneumoniae, 8 µg/mL (≈ 18.4 µM).

In turn, `CC(=O)NC[C@H]1CN(c2ccc(N3CCC4(CC3)COCO4)c(F)c2)C(=O)O1` registered an ED50 with Staphylococcus aureus [1] of 5 mg/kg. The MIC was 4 µg/mL (≈ 10.2 µM) against Staphylococcus aureus [2], more than 16 µg/mL in the assay with Haemophilus influenzae, 4 µg/mL (≈ 10.2 µM) with Staphylococcus aureus [4] and 2 µg/mL (≈ 5.08 µM) in the assay with Streptococcus pneumoniae.

In the assay with Staphylococcus aureus [1], `CC(=O)NC[C@H]1CN(c2ccc(N3CCC4(CC3)OCCS4)c(F)c2)C(=O)O1` gave an ED50 of 10 mg/kg. The MIC with Staphylococcus aureus [2] is 4 µg/mL (≈ 9.77 µM); against Haemophilus influenzae it was more than 16 µg/mL; in the assay with Staphylococcus aureus [4], 4 µg/mL (≈ 9.77 µM); in the assay on Streptococcus pneumoniae, 4 µg/mL (≈ 9.77 µM).

In the case of `CC(=O)NC[C@H]1CN(c2ccc(N3CCC4(OCCO4)C(C)(C)C3)c(F)c2)C(=O)O1`, the MIC against Haemophilus influenzae worked out at 2 µg/mL (≈ 4.75 µM); against Staphylococcus aureus [4], 12.5 µg/mL (≈ 29.7 µM); against Streptococcus pneumoniae, 4 µg/mL (≈ 9.49 µM).

Consider `CC(=O)NC[C@H]1CN(c2ccc(N3CCC4(CC3)OCC(C)O4)c(F)c2)C(=O)O1` (some centres undefined), for which the ED50 in the assay on Staphylococcus aureus [1] was more than 20 mg/kg. In the assay with Staphylococcus aureus [4], this compound came in with an MIC of 8 µg/mL (≈ 19.6 µM).

The compound `CC(=O)NC[C@H]1CN(c2ccc(N3CCCC4(C3)OCCO4)c(F)c2)C(=O)O1` registered an ED50 in the assay with Staphylococcus aureus [1] of 5 mg/kg. Moreover, the MIC in the assay with Staphylococcus aureus [2] came to 4 µg/mL (≈ 10.2 µM); in the assay with Haemophilus influenzae, 16 µg/mL (≈ 40.7 µM); in the assay on Staphylococcus aureus [4], 4 µg/mL (≈ 10.2 µM); with Streptococcus pneumoniae, 4 µg/mL (≈ 10.2 µM).

Regarding `O=C1O[C@@H](Cn2ccnn2)CN1c1cc(F)c(N2CCC3(OCCO3)C(F)C2)c(F)c1` (some centres undefined), the MIC in the assay on Staphylococcus aureus [2] is 8 µg/mL (≈ 18.2 µM); against Haemophilus influenzae it was more than 16 µg/mL; in the assay with Staphylococcus aureus [4], 4 µg/mL (≈ 9.1 µM); in the assay on Streptococcus pneumoniae, 2 µg/mL (≈ 4.55 µM).

`CC(=O)NC[C@H]1CN(c2ccc(N3CCC4(CCO4)CC3)c(F)c2)C(=O)O1`: the ED50 in the assay with Staphylococcus aureus [1] was 20 mg/kg. Also, the MIC in the assay on Staphylococcus aureus [2] is 16 µg/mL (≈ 42.4 µM); against Haemophilus influenzae, more than 16 µg/mL; against Staphylococcus aureus [4], 6.25 µg/mL (≈ 16.6 µM); against Streptococcus pneumoniae, 4 µg/mL (≈ 10.6 µM).

Take `CC(=O)NC[C@H]1CN(c2ccc(N3CCC4(CC3)COCCO4)c(F)c2)C(=O)O1`: the ED50 in the assay with Staphylococcus aureus [1] was more than 10 mg/kg. The MIC was 4 µg/mL (≈ 9.82 µM) in the assay with Staphylococcus aureus [2], more than 16 µg/mL in the assay with Haemophilus influenzae, 4 µg/mL (≈ 9.82 µM) with Staphylococcus aureus [4] and 2 µg/mL (≈ 4.91 µM) in the assay on Streptococcus pneumoniae.

`CC(=O)NC[C@H]1CN(c2ccc(N3CCC4(CC3)COCCCO4)c(F)c2)C(=O)O1` returned an ED50 in the assay with Staphylococcus aureus [1] of 10 mg/kg. The MIC in the assay with Staphylococcus aureus [2] is 8 µg/mL (≈ 19 µM); against Haemophilus influenzae it was more than 16 µg/mL; in the assay with Staphylococcus aureus [4], 4 µg/mL (≈ 9.49 µM); in the assay with Streptococcus pneumoniae, 4 µg/mL (≈ 9.49 µM).

The compound `CC(=O)NC[C@H]1CN(c2ccc(N3CCC4(CC3)NCCO4)c(F)c2)C(=O)O1` returned an ED50 in the assay with Staphylococcus aureus [1] of 20 mg/kg. Besides, the MIC was 2 µg/mL (≈ 5.1 µM) in the assay with Staphylococcus aureus [2], 8 µg/mL (≈ 20.4 µM) in the assay with Haemophilus influenzae, 2 µg/mL (≈ 5.1 µM) against Staphylococcus aureus [4] and 2 µg/mL (≈ 5.1 µM) against Streptococcus pneumoniae.

As a reminder, the ED50 is the dose at which the effect has come halfway, by size or by number of responders. A high value points to weaker potency.
